Columns and labels:
CDK6/Cyclin D3 = CDK6/Cyclin D3 (Homo sapiens, UniProt Q00534); assay: inhibition of CDK6/Cyclin D3 kinase, TR-FRET; type: biochemical; conditions: CDK6/Cyclin D3, 1 mM ATP, 0.15 μM Rb (Ser780)-biotin substrate, pH 7.0, 60 min preincubation, 120 min reaction, room temperature; read-out: CDK6D3 IC50
Protocol: (§1) Compounds disclosed herein were tested for inhibition of CDK4/Cyclin D1 or CDK6/Cyclin D3 kinase in an assay based on the time-resolved fluorescence-resonance energy transfer (TR-FRET) methodology. The assay was carried out in 384-well low volume black plates in a reaction mixture containing CDK4/Cyclin D1 or CDK6/Cyclin D3, 1 mM ATP, 0.15 μM Rb (Ser780)-biotin substrate and 0-10 μM compound in buffer containing 50 mM HEPES pH7.0, 0.02% NaN3, 0.01% BSA, 0.1 mM Orthovanadate, 50 mM MgCl2, 1 mM DTT and 0.005% Tween-20. The kinase was incubated with compound for 60 minutes at room temperature and the reaction was initiated by the addition of ATP and Rb (Ser780)-biotin substrate. After reaction at room temperature for 120 minutes, an equal volume of stop/detection solution was added according to the manufacture's instruction (Cisbio Bioassays). The stop/detection solution contained Streptavidin-XL665 and Anti-pRb (Ser780) mAb-Eu Cryptate in Detection buffer (Cisbio Bioassays). Plates were incubated at room temperature for 60 minutes, and the TR-FRET signals (ex337 nm, em665 nm/620 nm) were recorded on a PHERAstar FSX plate reader (BMG Labtech). The inhibition percentage of CDK4/Cyclin D1 or CDK6/Cyclin D3 kinase activity in presence of increasing concentrations of compounds was calculated based on the ratio of fluorescence at 665 nm to that at 620 nm. The IC50 for each compound was derived from fitting the data to the four-parameter logistic equation by Dotmatics.

CDK4/Cyclin D1 = CDK4/Cyclin D1 (Homo sapiens, UniProt P11802); assay: inhibition of CDK4/Cyclin D1 kinase, TR-FRET; type: biochemical; conditions: CDK4/Cyclin D1, 1 mM ATP, 0.15 μM Rb (Ser780)-biotin substrate, pH 7.0, 60 min preincubation, 120 min reaction, room temperature; read-out: CDK4D1 IC50
Chain of CDK4/Cyclin D1 (P11802 whole entry): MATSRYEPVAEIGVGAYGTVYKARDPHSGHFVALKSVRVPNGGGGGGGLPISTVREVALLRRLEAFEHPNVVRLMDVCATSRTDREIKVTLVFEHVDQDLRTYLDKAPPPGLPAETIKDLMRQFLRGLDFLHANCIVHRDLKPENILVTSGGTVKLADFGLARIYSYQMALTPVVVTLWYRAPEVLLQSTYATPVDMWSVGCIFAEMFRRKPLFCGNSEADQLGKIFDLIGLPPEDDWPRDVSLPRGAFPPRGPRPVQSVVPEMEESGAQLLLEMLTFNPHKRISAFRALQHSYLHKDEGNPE
Chain of CDK4/Cyclin D1 (P24385 whole entry partner): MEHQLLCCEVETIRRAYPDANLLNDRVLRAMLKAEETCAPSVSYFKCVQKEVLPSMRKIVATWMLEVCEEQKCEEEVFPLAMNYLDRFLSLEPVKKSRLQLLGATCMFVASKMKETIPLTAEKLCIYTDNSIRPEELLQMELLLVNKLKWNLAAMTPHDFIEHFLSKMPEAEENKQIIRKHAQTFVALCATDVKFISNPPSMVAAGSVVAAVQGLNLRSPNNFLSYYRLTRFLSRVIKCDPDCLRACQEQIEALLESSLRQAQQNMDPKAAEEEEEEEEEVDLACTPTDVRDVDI
Protocol: as §1

Chain of CDK6/Cyclin D3 (Q00534 whole entry): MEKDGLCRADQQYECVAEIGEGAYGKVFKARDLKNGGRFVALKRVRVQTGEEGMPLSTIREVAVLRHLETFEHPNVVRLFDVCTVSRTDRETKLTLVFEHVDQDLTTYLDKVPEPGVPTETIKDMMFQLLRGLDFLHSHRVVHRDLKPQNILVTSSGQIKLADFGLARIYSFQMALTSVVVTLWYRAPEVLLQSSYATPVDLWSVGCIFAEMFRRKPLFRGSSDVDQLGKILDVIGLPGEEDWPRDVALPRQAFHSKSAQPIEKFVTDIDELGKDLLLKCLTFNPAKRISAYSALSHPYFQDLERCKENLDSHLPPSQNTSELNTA
Chain of CDK6/Cyclin D3 (P30281 whole entry partner): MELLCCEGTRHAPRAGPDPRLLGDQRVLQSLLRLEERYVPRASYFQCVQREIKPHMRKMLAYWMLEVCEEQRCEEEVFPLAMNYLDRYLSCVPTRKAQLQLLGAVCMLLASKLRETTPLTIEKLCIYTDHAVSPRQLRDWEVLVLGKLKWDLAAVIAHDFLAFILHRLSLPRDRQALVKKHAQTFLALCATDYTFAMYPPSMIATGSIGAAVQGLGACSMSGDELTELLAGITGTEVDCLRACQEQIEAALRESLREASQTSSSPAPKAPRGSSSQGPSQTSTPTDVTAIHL

Structure (SMILES) | IC50 (CDK6/Cyclin D3) [nM] | IC50 (CDK4/Cyclin D1) [nM]
CC(C)(C)OC(=O)N1CCC(Nc2ncc(F)c(-c3cc(F)c4nccc(C(C)(C)O)c4c3)n2)CC1 [Example A4, tert-butyl 4-((5-fluoro-4-(8-fluoro-4-(2-hydroxypropan-2-yl)quinolin-6-yl)pyrimidin-2-yl)amino) piperidine-1-carboxylate] | 1700 | 171
C[C@@H](N)c1ccnc2c(F)cc(-c3nc(N[C@@H]4CCOC[C@H]4O)ncc3F)cc12 [Example A7, (3S,4R)-4-((4-(4-((R)-1-aminoethyl)-8-fluoroquinolin-6-yl)-5-fluoropyrimidin-2-yl)amino)tetrahydro-2H-pyran-3-ol] | 2380 | 97
CC(C)(O)c1ccnc2c(F)cc(-c3nc(NC4CCNCC4)ncc3F)cc12 [Example A5, 2-(8-fluoro-6-(5-fluoro-2-(piperidin-4-ylamino)pyrimidin-4-yl)quinolin-4-yl) propan-2-ol] | 220 | 83
Cc1cc(C(C)(C)O)c2cc(-c3nc(N[C@@H]4CCOC[C@H]4O)ncc3F)cc(F)c2n1 [Example A3, (3S,4R)-4-((5-fluoro-4-(8-fluoro-4-(2-hydroxypropan-2-yl)-2-methylquinolin-6-yl)pyrimidin-2-yl)amino)tetrahydro-2H-pyran-3-ol] | 249 | 33

Next, values leading:

IC50 (CDK6/Cyclin D3) [nM] | IC50 (CDK4/Cyclin D1) [nM] | Structure (SMILES)
760 | 32 | C[C@H](N)c1ccnc2c(F)cc(-c3nc(N[C@@H]4CCOC[C@H]4O)ncc3F)cc12 [Example A6, (3S,4R)-4-((4-(4-((S)-1-aminoethyl)-8-fluoroquinolin-6-yl)-5-fluoropyrimidin-2-yl)amino)tetrahydro-2H-pyran-3-ol]
84 | 12 | CC(C)(O)c1ccnc2c(F)cc(-c3nc(N[C@@H]4CCOC[C@H]4O)ncc3F)cc12 [Example A2, (3S,4R)-4-((5-fluoro-4-(8-fluoro-4-(2-hydroxypropan-2-yl)quinolin-6-yl)pyrimidin-2-yl)amino)tetrahydro-2H-pyran-3-ol]
688 | 122 | COC(=O)c1ccnc2c(F)cc(-c3nc(N[C@@H]4CCOC[C@H]4O)ncc3F)cc12 [Example A1, methyl 8-fluoro-6-(5-fluoro-2-(((3S,4R)-3-hydroxytetrahydro-2H-pyran-4-yl)amino)pyrimidin-4-yl) quinoline-4-carboxylate]

Reference: patent US20260347346A1, “SUBSTITUTED 6-(PYRIMIDIN-4-YL)QUINOLINE COMPOUNDS AS CYCLIN DEPENDENT KINASE INHIBITORS” (BeOne Medicines I GmbH, priority 2022, published 2026)
